Assay results reported in patent publication EP0063525A1, “Dibenzazepine tetracyclic derivatives, process for their preparation and pharmaceutical compositions containing them” (CENTRE NATIONAL DE LA RECHERCHE SCIENTIFIQUE (CNRS), priority 1981, dated 1982).
Read-outs that look alike come from different tables or passages of the source.

How the values were obtained:
Souris [1] = experiment: tetrabenazine hypothermia; type: in vivo
Protocol: (§1) Ce test permet de révéler également une activité antidépressive avec l'avantage d'une lecture plus rapide qu'avec la réserpine.
Les produits sont injectés 30 minutes avant l'administration de tétrabénazine.
Les températures sont relevées aux temps : 0, 30 minutes, 60 minutes, 90 minutes et 120 minutes.
(§2) Les souris sont réparties par lots de 5.
Les températures sont relevées avant l'injection de tétrabénazine, 30 minutes, 60 minutes, 90 minutes et 120 minutes après.
(§3) Le lot témoin comprend 20 souris.

Souris [2] = experiment: antireserpine activity: reserpine hypothermia; type: in vivo; details: réserpine 5 mg/kg i.p. 17 h before
Protocol: On note ensuite les températures témoins (réserpine), puis les températures 1, 2, 3 et 4 heures après l'administration des produits étudiés.
Les animaux sont répartis en lots de 4 animaux et reçoivent par voie intrapéritonéale la réserpine à une dose de 5 mg/kg. 17 heures après cette injection, on mesure la température corporelle de l'animal à l'aide d'une sonde thermocouple introduite dans le rectum; chaque lot reçoit ensuite la substance par voie intrapéritonéale. Le lot témoin reçoit la même quantité de solvant et par la même voie. La température corporelle est ensuite mesurée toutes les heures pendant 4 heures.
Les résultats sont rassemblés dans un tableau récapitulatif-où sont indiqués : • - la température moyenne pour chaque lot relevée 17 heures après l'injection de la réserpine, • - la moyenne des variations de température pour chaque lot relevées 1,2, 3 et 4 heures après l'injection de la substance étudiée, • - la somme des variations de températures pendant 4 heures, • - le pourcentage d'augmentation de la température pour chaque produit par rapport aux témoins.

Souris [3] = experiment: tetrabenazine ptosis; type: in vivo
Protocol: as §1, §2
Le ptosis est noté avant l'injection de tétrabénazine, 30 minutes, 60 minutes, 90 minutes et 120 minutes après.
On a adopté la notation suivante : • - 0 : pour un oeil ouvert, • - 1 : pour un oeil fermé au quart, • - 2 : pour un oeil fermé à moitié, • - 3 : pour un oeil fermé aux trois-quarts, • - 4 : pour un oeil fermé complètement.
as §3

souris femelles = experiment: acute toxicity in the mouse, intraperitoneal; type: in vivo; details: voie intrapéritonéale; for Mortalité en 1 heure / Mortalité en 48 h. / Mortalité en 48 heures: dead mice of the group
Source text: (§4) Les produits ont été administrés par voie intrapéritonéale à des souris femelles dont le poids variait de 18 à 30 g.
(§5) Les animaux injectés ont été maintenus dans une salle thermostatée, nourris et abreuvés à volonté.
(§6) La mortalité a été relevée à 1 heure, 4 heures, 24 heures et 48 heures.

[4] = acute toxicity in the mouse, intraperitoneal; type: in vivo, Souris; details: mouse, in vivo, ip, voie intrapéritonéale; for LD50 at 48 h: souris femelles, read-out: DL 50; for mortality at 48 h: read-out: Mortalité %
Source text: as §4, §5, §6

[5] = product i.p. 50 mg/kg 30 min before tétrabénazine 32 mg/kg i.v.
[6] = product i.p. 50 mg/kg 30 min before tétrabénazine 32 mg/kg i.v., score 0-4 per eye
[7] = product i.p. 100 mg/kg 30 min before tétrabénazine 32 mg/kg i.v.
[8] = product i.p. 100 mg/kg 30 min before tétrabénazine 32 mg/kg i.v., score 0-4 per eye
[9] = product i.p. 200 mg/kg 30 min before tétrabénazine 32 mg/kg i.v.
[10] = product i.p. 200 mg/kg 30 min before tétrabénazine 32 mg/kg i.v., score 0-4 per eye
[11] = product i.p. 150 mg/kg 30 min before tétrabénazine 32 mg/kg i.v.
[12] = product i.p. 150 mg/kg 30 min before tétrabénazine 32 mg/kg i.v., score 0-4 per eye

CN(C)CCCN1c2ccccc2C2ON=C(c3ccccc3)C2c2ccccc21 (centres unmarked) [compound 3, (γ-diméthylaminopropyl)-8 phényl-3 trihydro-3a, 8,12b (dibenzo [b,f]isoxazolo [4,5-d])azépine]
inhibition in vivo at 50 mg/kg (Souris [1]; ip, 2 h, hypothermie, product i.p. 50 mg/kg 30 min before tétrabénazine 32 mg/kg i.v., read-out: % de protection): 40%
Température après tétrabénazine 30 minutes (Souris [1]; [5]): -0,9
Température après tétrabénazine 60 minutes (Souris [1]; [5]): -1,2
Température après tétrabénazine 90 minutes (Souris [1]; [5]): -2,6
Température après tétrabénazine 120 minutes (Souris [1]; [5]): -0,4
Température après tétrabénazine Total (Souris [1]; [5]): -5,1
change in vivo at 50 mg/kg (Souris [2]; ip, 4 h, product i.p. 50 mg/kg, read-out: % d'augmentation par rapport aux témoins): 125%
variation de température T= 2h (Souris [2]; product i.p. 50 mg/kg): +0,9
variation de température T=3h (Souris [2]; product i.p. 50 mg/kg): +0,9
variation de température T=4h (Souris [2]; product i.p. 50 mg/kg): +0,1
inhibition in vivo at 50 mg/kg (Souris [3]; ip, 2 h, ptosis, product i.p. 50 mg/kg 30 min before tétrabénazine 32 mg/kg i.v., read-out: % de protection): 32%
Ptosis Total (Souris [3]; [5]): 20,4
Ptosis 30 minutes (Souris [3]; [6]): 1,6
Ptosis 60 minutes (Souris [3]; [6]): 5,2
Ptosis 90 minutes (Souris [3]; [6]): 6,8
Ptosis 120 minutes (Souris [3]; [6]): 6,8
Mortalité en 1 heure (souris femelles; 100 mg/kg): 0
Mortalité en 48 h. (souris femelles; 100 mg/kg): 0
Mortalité en 1 heure (souris femelles; 150 mg/kg): 0
Mortalité en 48 h. (souris femelles; 150 mg/kg): 0
Mortalité en 1 heure (souris femelles; 200 mg/kg): 2
Mortalité en 48 h. (souris femelles; 200 mg/kg): 2
Mortalité en 1 heure (souris femelles; 250 mg/kg): 5
Mortalité en 48 h. (souris femelles; 250 mg/kg): 5
LD50 at 48 h [4]: 200 mg/kg
mortality at 48 h ([4]; 100 mg/kg): 0%
mortality at 48 h ([4]; 150 mg/kg): 0%
mortality at 48 h ([4]; 200 mg/kg): 40%
mortality at 48 h ([4]; 250 mg/kg): 100%

CN(C)CCN1c2ccccc2C2C(c3ccccc3)=NN(c3ccccc3)C2c2ccccc21 (stereo not drawn) [compound 7, (β-diméthylaminoéthyl)-8 diphényl-1,3 tétrahydro-1,3a, 8, 12b (dibenzo [b,f]pyrazolo [3,4-d]) azépine]
inhibition in vivo at 100 mg/kg (Souris [1]; ip, 2 h, hypothermie, product i.p. 100 mg/kg 30 min before tétrabénazine 32 mg/kg i.v., read-out: % de protection): 26%
Température après tétrabénazine 30 minutes (Souris [1]; [7]): -3,2
Température après tétrabénazine 60 minutes (Souris [1]; [7]): -1,3
Température après tétrabénazine 90 minutes (Souris [1]; [7]): -1
Température après tétrabénazine 120 minutes (Souris [1]; [7]): -0,8
Température après tétrabénazine Total (Souris [1]; [7]): -6,3
change in vivo at 100 mg/kg (Souris [2]; ip, 4 h, product i.p. 100 mg/kg, read-out: % d'augmentation par rapport aux témoins): 125%
variation de température T= 2h (Souris [2]; product i.p. 100 mg/kg): +1,1
variation de température T=3h (Souris [2]; product i.p. 100 mg/kg): +0,7
variation de température T=4h (Souris [2]; product i.p. 100 mg/kg): +0,1
inhibition in vivo at 100 mg/kg (Souris [3]; ip, 2 h, ptosis, product i.p. 100 mg/kg 30 min before tétrabénazine 32 mg/kg i.v., read-out: % de protection): 14%
Ptosis Total (Souris [3]; [7]): 25,8
Ptosis 30 minutes (Souris [3]; [8]): 3,8
Ptosis 60 minutes (Souris [3]; [8]): 7
Ptosis 90 minutes (Souris [3]; [8]): 7
Ptosis 120 minutes (Souris [3]; [8]): 8
Mortalité en 1 heure (souris femelles; 250 mg/kg): 0
Mortalité en 48 h. (souris femelles; 250 mg/kg): 0
Mortalité en 1 heure (souris femelles; 500 mg/kg): 0
Mortalité en 48 h. (souris femelles; 500 mg/kg): 0
Mortalité en 1 heure (souris femelles; 900 mg/kg): 1
Mortalité en 48 h. (souris femelles; 900 mg/kg): 1
LD50 at 48 h [4]: > 500 mg/kg
mortality at 48 h ([4]; 250 mg/kg): 0%
mortality at 48 h ([4]; 500 mg/kg): 0%

CN(C)CCN1c2ccccc2-c2c(-c3ccccc3)nn(-c3ccccc3)c2-c2ccccc21 [compound 13]
inhibition in vivo at 200 mg/kg (Souris [1]; ip, 2 h, hypothermie, product i.p. 200 mg/kg 30 min before tétrabénazine 32 mg/kg i.v., read-out: % de protection): 15%
Température après tétrabénazine 30 minutes (Souris [1]; [9]): -3,4
Température après tétrabénazine 60 minutes (Souris [1]; [9]): -1,9
Température après tétrabénazine 90 minutes (Souris [1]; [9]): -1,1
Température après tétrabénazine 120 minutes (Souris [1]; [9]): -0,9
Température après tétrabénazine Total (Souris [1]; [9]): -7,3
change in vivo at 200 mg/kg (Souris [2]; ip, 4 h, product i.p. 200 mg/kg, read-out: % d'augmentation par rapport aux témoins): 70%
variation de température T=1h (Souris [2]; product i.p. 200 mg/kg): +1,9
variation de température T= 2h (Souris [2]; product i.p. 200 mg/kg): +1
variation de température T=3h (Souris [2]; product i.p. 200 mg/kg): +0,5
variation de température T=4h (Souris [2]; product i.p. 200 mg/kg): 0
inhibition in vivo at 200 mg/kg (Souris [3]; ip, 2 h, ptosis, product i.p. 200 mg/kg 30 min before tétrabénazine 32 mg/kg i.v., read-out: % de protection): 14%
Ptosis Total (Souris [3]; [9]): 25,9
Ptosis 30 minutes (Souris [3]; [10]): 4
Ptosis 60 minutes (Souris [3]; [10]): 6,8
Ptosis 90 minutes (Souris [3]; [10]): 7,6
Ptosis 120 minutes (Souris [3]; [10]): 7,5
Mortalité en 1 heure (souris femelles; 50 mg/kg): 0
Mortalité en 48 h. (souris femelles; 50 mg/kg): 0
Mortalité en 1 heure (souris femelles; 100 mg/kg): 0
Mortalité en 48 h. (souris femelles; 100 mg/kg): 0
Mortalité en 1 heure (souris femelles; 250 mg/kg): 0
Mortalité en 48 h. (souris femelles; 250 mg/kg): 0
Mortalité en 1 heure (souris femelles; 400 mg/kg): 3
Mortalité en 48 heures (souris femelles; 400 mg/kg): 3
Mortalité en 1 heure (souris femelles; 750 mg/kg): 2
Mortalité en 48 h. (souris femelles; 750 mg/kg): 5
LD50 at 48 h [4]: 350 mg/kg
mortality at 48 h ([4]; 50 mg/kg): 0%
mortality at 48 h ([4]; 100 mg/kg): 0%
mortality at 48 h ([4]; 250 mg/kg): 0%
mortality at 48 h ([4]; 400 mg/kg): 60%
mortality at 48 h ([4]; 750 mg/kg): 100%

( [1'-(β-hydroxyéthyl-4') pipérazinyl]-3propyl)-8 diphényl-1,3 tétrahydro-1,3a, 8,12b(dibenzo[b,f] pyrazolo [3,4-d])azépine [compound 10]
% de protection (Souris [1]; hypothermie, product i.p. 150 mg/kg 30 min before tétrabénazine 32 mg/kg i.v.): 53%
Température après tétrabénazine 30 minutes (Souris [1]; [11]): -1,7
Température après tétrabénazine 60 minutes (Souris [1]; [11]): -1,9
Température après tétrabénazine 90 minutes (Souris [1]; [11]): +0,6
Température après tétrabénazine 120 minutes (Souris [1]; [11]): -1
Température après tétrabénazine Total (Souris [1]; [11]): -4
% d'augmentation par rapport aux témoins (Souris [2]; product i.p. 150 mg/kg): 205%
variation de température T= 2h (Souris [2]; product i.p. 150 mg/kg): +2,4
variation de température T=3h (Souris [2]; product i.p. 150 mg/kg): +1,4
variation de température T=4h (Souris [2]; product i.p. 150 mg/kg): +0,6
Ptosis Total (Souris [3]; [11]): 20,8
Ptosis 30 minutes (Souris [3]; [12]): 1
Ptosis 60 minutes (Souris [3]; [12]): 6
Ptosis 90 minutes (Souris [3]; [12]): 5,8
Ptosis 120 minutes (Souris [3]; [12]): 8
Ptosis T = 0 (Souris [3]; product i.p. 150 mg/kg, before tétrabénazine, score 0-4 per eye): 0
% de protection (Souris [3]; ptosis, product i.p. 150 mg/kg 30 min before tétrabénazine 32 mg/kg i.v.): 31%
DL 50 (souris femelles; souris femelles, 2880 min): >750 mg/kg
Mortalité % (souris femelles; 200 mg/kg, 2880 min): 0%
Mortalité en 1 heure (souris femelles; 200 mg/kg): 0
Mortalité en 48 h. (souris femelles; 200 mg/kg): 0
Mortalité % (souris femelles; 300 mg/kg, 2880 min): 0%
Mortalité en 1 heure (souris femelles; 300 mg/kg): 0
Mortalité en 48 h. (souris femelles; 300 mg/kg): 0
Mortalité % (souris femelles; 750 mg/kg, 2880 min): 0%
Mortalité en 1 heure (souris femelles; 750 mg/kg): 0
Mortalité en 48 h. (souris femelles; 750 mg/kg): 0
Mortalité en 1 heure (souris femelles; 1500 mg/kg): 0
Mortalité en 48 heures (souris femelles; 1500 mg/kg): 1
